One experiment addresses h-GABA-A α2β2γ1 (Homo sapiens (Human), UniProt P47869+Q8N1C3). As to the kind of experiment: Two-electrode voltage clamp electrophysiology in Xenopus oocytes expressing GABAA receptors. To be noted: Table 2; for Efficacy (GABA) %: % modulation of GABA EC20 = 100*(Fold increase-1), compound at 30-fold Ki; for Fold increase h-GABA-A α2β2γ1 oocyte @ 30-fold Ki: GABA EC20, test compound at approx. 30-fold its Ki α2β2γ1, Xenopus oocytes, -80 mV. Type of experiment: cell-based. The procedure:
Xenopus laevis oocytes at maturation stages V-VI were used for the expression of cloned mRNA encoding GABAA receptor subunits. Oocytes ready for RNA micro-injection were bought from Ecocyte, Castrop-Rauxel, Germany and stored in modified Barth's medium (composition in mM: NaCl 88, KCl 1, NaHCO3 2.4, HEPES 10, MgSO4 0.82, CaNO3 0.33, CaCl2 0.33, pH=7.5) at 20° C. until the experiment.
Oocytes were plated in 96-well plates for microinjection using the Roboinject automated instrument (MultiChannelSystems, Reutlingen, Germany). Approximately 50 nL of an aqueous solution containing the RNA transcripts for the subunits of the desired GABAA receptor subtype was injected into each oocyte. […] Oocytes were kept in modified Barth's medium (composition in mM: NaCl 88, KCl 1, NaHCO3 […], HEPES 10, MgSO4 0.82, CaNO3 0.33, CaCl2 0.33, pH=7.5) at 20° C. until the experiment.
Electrophysiological experiments were performed using the Roboocyte instrument (MultiChannelSystems, Reutlingen, Germany) on days 3 to 5 after the micro-injection of mRNA. During the experiment the oocytes were constantly superfused by a solution containing (in mM) NaCl 90, KCl 1, HEPES 5, MgCl2 1, CaCl2 1 (pH 7.4). Oocytes were impaled by two glass microelectrodes (resistance: […]) which were filled with a solution containing KCl 1M+K-acetate 1.5 M and voltage-clamped to −80 mV. The recordings were performed at room temperature using the Roboocyte two-electrode voltage clamp system (Multichannelsystem). After an initial equilibration period of 1.5 min GABA was added for 1.5 min at a concentration evoking approximately 20% of a maximal current response (EC20). After another rest interval of 2.5 min GABA was again added evoking a response of similar amplitude and shape. […] Current traces were recorded at a digitization rate of 10 Hz during and shortly before and after the GABA application.
Each compound and concentration was tested on at least 3 oocytes. Different oocytes were used for different compound concentrations.
For the analysis, the digitized current traces of the first and second GABA response were superimposed and, if necessary, rescaled to equal maximal amplitudes. The ratio between the two responses during the time interval of test compound application was calculated point by point. The extremum of the resulting “ratio trace” was taken as the efficacy (“Fold increase”) of the compound expressed as “% modulation of GABA EC20” (100*(Fold increase−1)).
In general terms: Two-electrode voltage clamp holds a large cell at a set potential and records current.

Experiment [1] addresses human GABAA α5β2γ1 receptor (Homo sapiens (Human), UniProt P31644+Q8N1C3). Briefly: Radioligand binding assay, competition for [3H]RO7239181, γ1-containing GABAA subtypes. To be noted: Table 1; [3H]RO7239181 displacement, membranes from HEK293F cells, mean of two determinations. The procedure: The affinity of compounds at GABAA γ1 subunit-containing receptors was measured by competition for [^3H]RO7239181 (67.3 Ci/mmol; Roche) binding to membranes from HEK293F cells (ThermoFisher R79007) expressing human (transiently transfected) receptors of composition α5β2γ1, α2β2γ1, α1β2γ1. For better protein expression of the α2 subunit-containing receptors, the 28 amino acid long signal peptide (Met1 to Ala28) of the human GABAA α2 subunit was substituted by the 31 amino acid long signal peptide (Met1 to Ser31) of human GABAA α5 subunit.
Harvested pellets from HEK293F cells expressing the different GABAA receptor subtypes were resuspended in Mannitol Buffer pH 7.2-7.4 (Mannitol 0.29 M, Triethylamine 10 mM, Acetic acid 10 mM, EDTA 1 mM plus protease inhibitors (20 tablets Complete, Roche Diagnostics Cat. No. 05 056 489 001 per liter)), washed two times and then resuspended at 1:10 to 1:15 dilution in the same buffer. Cell disruption was performed by stirring the suspension in a Parr vessel #4637 at 435 psi for 15 minutes, and then the suspensions were centrifuged at 1000×g for 15 minutes at 4° C. (Beckman Avanti J-HC: rotor JS-4.2). The supernatant (S1) was transferred in a 21 Schott flask and the pellet (P1) was resuspended with Mannitol Buffer up to 175 ml. The resuspended pellet was transferred into a 250 ml Corning centrifugal beaker and centrifuged at 1500×g for 10 minutes at 4° C. (Beckman Avanti J-HC: rotor JS-4.2). The supernatant (S1) was then transferred in the 21 Schott flask and the pellet was discarded. The supernatants (S1) were centrifuged in 500 ml Beckman polypropylene centrifugal beaker at 15′000×g for 30 minutes at 4° C. (Beckman Avanti J-20 XP; rotor JLA-10.500). The pellet (P2) was resuspended with Mannitol Buffer 1:1 and frozen at −80° C. The supernatant (S2) was centrifuged in 100 ml Beckman polypropylene centrifugal tubes at 48000×g for 50 minutes at 4° C. (Beckman Avanti J-20 XP; rotor JA-18). The supernatant (S3) was discarded and the pellet (P3) was resuspended with 1:1 Mannitol Buffer. The P2 and P3 protein concentration was determined with the BIORAD Standard assay method with bovine serum albumin as standard and measured on the NANO-Drop 1000. The membrane suspension was aliquots (500 μl per tube) and stored at −80° C. until required.
Membrane homogenates were resuspended and polytronised (Polytron PT1200E Kinematica AG) in Potassium Phosphate 10 mM, KCl 100 mM binding buffer at pH 7.4 to a final assay concentration determined with a previous experiment.
Radioligand binding assays were carried out in a volume of 200 μL (96-well plates) which contained 100 μL of cell membranes, [3H]RO7239181 at a concentration of 1.5 nM (α5β2γ1) or 20-30 nM (α1β2γ1, α2β2γ1) and the test compound in the range of [0.3-10000]=10^−9 M. Nonspecific binding was defined by 10×10^−6 (α5β2γ1) and 30×10^−6 M RO7239181 and typically represented less than 5% (α5β2γ1) and less than 20% (β1β2γ1, α2β2γ1) of the total binding. Assays were incubated to equilibrium for 1 hour at 4° C. and then, membranes were filtered onto unifilter (96-well white microplate with bonded GF/C filters preincubated 20-50 minutes in 0.3% Polyethylenimine) with a Filtermate 196 harvester (Packard BioScience) and washed 4 times with cold Potassium Phosphate 10 mM pH 7.4, KCl 100 mM binding buffer. After anhydrousing, filter-retained radioactivity was detected by liquid scintillation counting. Ki values were calculated using Excel-Fit (Microsoft) and are the means of two determinations.
Representative test results, obtained by the above described assay measuring binding affinity to HEK293 cells expressing human (h) receptors, are shown in the Table 1.

SMILES strings stand for the structures.

We go through eleven molecules from patent US20240270744A1 (Hoffmann-La Roche Inc., priority 2021, published 2024).

`Cc1nnc2n1-c1cnc(Cl)c(Cl)c1C(c1c(F)cccc1F)=N[C@H]2C` [Example 1, (7S)-11,12-dichloro-9-(2,6-difluorophenyl)-3,7-dimethyl-2,4,5,8,13-pentazatricyclo[8.4.0.02,6]tetradeca-1(10),3,5,8,11,13-hexaene]: on h-GABA-A α2β2γ1, the “Efficacy (GABA) %” value came to 55% and the “Fold increase h-GABA-A α2β2γ1 oocyte @ 30-fold Ki” value was found to be 1.55. Further, the Ki in experiment [1] was found to be 2.4 nM.

For `Cc1nnc2n1-c1cnc(C3CC3)c(Cl)c1C(c1c(F)cccc1F)=N[C@H]2C` [Example 2, (7S)-11-chloro-12-cyclopropyl-9-(2,6-difluorophenyl)-3,7-dimethyl-2,4,5,8,13-pentazatricyclo[8.4.0.02,6]tetradeca-1(10),3,5,8,11,13-hexaene], at h-GABA-A α2β2γ1, the “Efficacy (GABA) %” value was found to be 162% and the “Fold increase h-GABA-A α2β2γ1 oocyte @ 30-fold Ki” value came out at 2.62. The molecule further yielded a Ki in experiment [1] of 12.6 nM.

`Cc1ncc2c(c1Cl)C(c1c(F)cccc1F)=N[C@@H](C)c1nnc(C)n1-2` [Example 3, (7S)-11-chloro-9-(2,6-difluorophenyl)-3,7,12-trimethyl-2,4,5,8,13-pentazatricyclo[8.4.0.02,6]tetradeca-1(10),3,5,8,11,13-hexaene]: at h-GABA-A α2β2γ1, the “Efficacy (GABA) %” value amounted to 66% and the “Fold increase h-GABA-A α2β2γ1 oocyte @ 30-fold Ki” value came to 1.66. The same molecule yielded a Ki in experiment [1] of 4.7 nM.

Turning to `Cc1nnc2n1-c1cnc(C(F)(F)F)c(Cl)c1C(c1c(F)cccc1F)=N[C@H]2C` [Example 4, (7S)-11-chloro-9-(2,6-difluorophenyl)-3,7-dimethyl-12-(trifluoromethyl)-2,4,5,8,13-pentazatricyclo[8.4.0.02,6]tetradeca-1(10),3,5,8,11,13-hexaene], at h-GABA-A α2β2γ1, the “Efficacy (GABA) %” value is given as 116% and the “Fold increase h-GABA-A α2β2γ1 oocyte @ 30-fold Ki” value was determined as 2.16. Besides, in experiment [1], the Ki is 4.9 nM.

As to `Cc1nc2n(n1)-c1cnc(C(F)(F)F)c(Cl)c1C(c1c(F)cccc1F)=N[C@H]2C` [Example 5], at h-GABA-A α2β2γ1, the “Efficacy (GABA) %” value stood at 84% and the “Fold increase h-GABA-A α2β2γ1 oocyte @ 30-fold Ki” value is reported as 1.84. Moreover, the Ki in experiment [1] was found to be 1.7 nM.

In the case of `C[C@@H]1N=C(c2c(F)cccc2F)c2c(cnc(C(F)(F)F)c2Cl)-n2nc(C(=O)N3CCC3)nc21` [Example 6, azetidin-1-yl-[(7S)-11-chloro-9-(2,6-difluorophenyl)-7-methyl-12-(trifluoromethyl)-2,3,5,8,13-pentazatricyclo[8.4.0.02,6]tetradeca-1(10),3,5,8,11,13-hexaen-4-yl]methanone], at h-GABA-A α2β2γ1, the “Efficacy (GABA) %” value is given as 91% and the “Fold increase h-GABA-A α2β2γ1 oocyte @ 30-fold Ki” value is listed as 1.91. Moreover, the affinity in experiment [1] corresponds to a Ki of 11.6 nM.

In the case of `C[C@@H]1N=C(c2c(F)cccc2F)c2c(cnc(C(F)(F)F)c2Cl)-n2nc(C(=O)N3CC(F)C3)nc21` [Example 7, [(7S)-11-chloro-9-(2,6-difluorophenyl)-7-methyl-12-(trifluoromethyl)-2,3,5,8,13-pentazatricyclo[8.4.0.02,6]tetradeca-1(10),3,5,8,11,13-hexaen-4-yl]-(3-fluoroazetidin-1-yl)methanone], at h-GABA-A α2β2γ1, the “Efficacy (GABA) %” value came out at 85% and the “Fold increase h-GABA-A α2β2γ1 oocyte @ 30-fold Ki” value is on record as 1.85. In addition, in experiment [1], affinity was put at a Ki of 3.5 nM.

For `C[C@@H]1N=C(c2c(F)cccc2F)c2c(cnc(C(F)(F)F)c2Cl)-n2nc(C(=O)N3CC(O)C3)nc21` [Example 8, [(7S)-11-chloro-9-(2,6-difluorophenyl)-7-methyl-12-(trifluoromethyl)-2,3,5,8,13-pentazatricyclo[8.4.0.02,6]tetradeca-1(10),3,5,8,11,13-hexaen-4-yl]-(3-hydroxyazetidin-1-yl)methanone], on h-GABA-A α2β2γ1, the “Efficacy (GABA) %” value turned out to be 114% and the “Fold increase h-GABA-A α2β2γ1 oocyte @ 30-fold Ki” value came to 2.14. In experiment [1], this molecule yielded an inhibitory constant (Ki) of 2.5 nM.

Regarding `COC1CN(C(=O)c2nc3n(n2)-c2cnc(C(F)(F)F)c(Cl)c2C(c2c(F)cccc2F)=N[C@H]3C)C1` [Example 9, [(7S)-11-chloro-9-(2,6-difluorophenyl)-7-methyl-12-(trifluoromethyl)-2,3,5,8,13-pentazatricyclo[8.4.0.02,6]tetradeca-1(10),3,5,8,11,13-hexaen-4-yl]-(3-methoxyazetidin-1-yl)methanone], on h-GABA-A α2β2γ1, the “Efficacy (GABA) %” value was 87% and the “Fold increase h-GABA-A α2β2γ1 oocyte @ 30-fold Ki” value is listed as 1.87. This molecule gave a Ki in experiment [1] of 7.1 nM.

For the molecule `C[C@@H]1N=C(c2c(F)cccc2F)c2c(cnc(C(F)(F)F)c2Cl)-n2nc(C(=O)N3CC(C)(O)C3)nc21` [Example 10, [(7S)-11-chloro-9-(2,6-difluorophenyl)-7-methyl-12-(trifluoromethyl)-2,3,5,8,13-pentazatricyclo[8.4.0.02,6]tetradeca-1(10),3,5,8,11,13-hexaen-4-yl]-(3-hydroxy-3-methyl-azetidin-1-yl)methanone], on h-GABA-A α2β2γ1, the “Efficacy (GABA) %” value came to 82% and the “Fold increase h-GABA-A α2β2γ1 oocyte @ 30-fold Ki” value is recorded as 1.82. Besides, the affinity in experiment [1] corresponds to a Ki of 3 nM.

Turning to `C[C@@H]1N=C(c2c(F)cccc2F)c2c(cnc(C(F)(F)F)c2Cl)-n2nc(C(=O)N3CCS(=O)(=O)CC3)nc21` [Example 11, [(7S)-11-chloro-9-(2,6-difluorophenyl)-7-methyl-12-(trifluoromethyl)-2,3,5,8,13-pentazatricyclo[8.4.0.02,6]tetradeca-1(10),3,5,8,11,13-hexaen-4-yl]-(1,1-dioxo-1,4-thiazinan-4-yl)methanone], on h-GABA-A α2β2γ1, the “Efficacy (GABA) %” value is on record as 114% and the “Fold increase h-GABA-A α2β2γ1 oocyte @ 30-fold Ki” value is recorded as 2.14. Besides, in experiment [1], the Ki was determined as 4.6 nM.

For orientation: Ki means a measure of affinity in units of concentration, obtained from inhibition or displacement.
